Experiments:
[1] = system: H1299 Human Non-Small Cell Lung Carcinoma; experiment: H1299 human non-small cell lung carcinoma nude mouse xenograft model, tumor growth delay; format: in vivo, mice; details: for MTV (n) Day 28: median tumor volume of animals not at endpoint (n in brackets)
Experimental: (§1) The animals were fed ad libitum water (reverse osmosis, 1 ppm Cl) and NIH 31 Modified and Irradiated Lab Diet® consisting of 18.0% crude protein, 5.0% crude fat, and 5.0% crude fiber. The mice were housed on irradiated Enrich-o′ Cobs™ Laboratory Animal Bedding in static microisolators on a 12-hour light cycle at 20-22° C. (68-72° F.) and 40-60% humidity.
H1299 (NCI-H1299) NSCLC cells were obtained from the American Type Culture Collection, which reports the cell line to have originated from a lymph node metastasis and to lack p53 expression. The cell line was maintained as exponentially growing cultures in RPMI-1640 medium supplemented with 10% fetal bovine serum, 2 mM glutamine, 100 units/mL penicillin G sodium, 100 μg/mL streptomycin sulfate, 25 μg/mL gentamicin, 10 mM HEPES, and 0.075% sodium bicarbonate. The tumor cells were cultured in tissue culture flasks in a humidified incubator at 37° C., in an atmosphere of 5% CO2 and 95% air.
H1299 tumor cells were harvested during log phase growth and suspended in cold PBS. Each nude mouse was inoculated subcutaneously in the right flank with 0.2 mL of the cell suspension (1×10^7 cells). The tumors were periodically calipered in two dimensions to monitor size as the mean volume approached the desired 90-130 mm^3 range. Tumor size was calculated by the following formula:
where w=width and l=length, in mm, of the tumor. Tumor weight may be estimated with the assumption that 1 mg is equivalent to 1 mm^3 of tumor volume.
Compound 13A (MW 467.51, code-named XT26) was provided as a powder stored at −20° C., and protected from light during storage and handling. Dosing suspensions, in 0.5% carboxymethyl cellulose and 1% Tween® 80 in deionized water (Vehicle), were prepared fresh for each dose, and kept at 4° C. post formulation. Gemcitabine (Gemzar®, Lilly, 38 mg/mL, Lot # A866884A) was stored at room temperature. A fresh 12 mg/mL gemcitabine dosing solution was prepared on each treatment day by diluting an aliquot of the stock solution with saline.
(§2) Dosing began on D1 in four groups of mice (n=12/group in Groups 1, 3, and 4; n=6 in Group 2). XT26 and its vehicle were administered intraperitoneally (i.p.) twice daily for 28 days (b.i.d.×28), starting with the p.m. dose on D1 and ending with the a.m. dose on D29. Gemcitabine was administered i.p. once daily at three-day intervals for four doses (q3d×4). In all groups, the dosing volume of 10 ml/kg (0.2 ml/20 g mouse) was scaled to the weight of each individual animal, as measured twice weekly.
Group 1 mice received the XT26 vehicle b.i.d.×28, and served as the controls for the study. Group 2 received gemcitabine at 120 mg/kg. Group 3 was to receive XT26 at 100 mg/kg b.i.d.×28; on D21, four mice (Animals 1, 3, 4, and 5) erroneously received 200 mg/kg XT26 for their a.m. dose. […] Group 4 dosing at 200 mg/kg resumed on D17 on a qd (once daily)×13 dosing schedule. Because of a scheduling error, the D19 dose for Group 4 mice was omitted; qd dosing occurred on Days 17, 18, and 20-28.
Tumors were calipered twice weekly for the duration of the study, and each animal was euthanized when its neoplasm reached the predetermined endpoint volume (1200 mm^3) or at the end of the study, whichever came first. Animals that exited the study for tumor growth were documented as euthanized for tumor progression (TP), with the date of euthanasia. The time to endpoint (TTE) for each mouse was calculated by the following equation: […]
where TTE is expressed in days, endpoint volume is expressed in mm^3, b is the intercept, and m is the slope of the line obtained by linear regression of a log-transformed tumor growth data set.

[2] = H1299 nude mouse xenograft study, toxicity (body weight, deaths, organ weights); format: in vivo, mice; details: Gemcitabine 120 mg/kg ip q3d × 4
Experimental: as §1, §2
Group 1 mice received the XT26 vehicle b.i.d.×28, and served as the controls for the study. Group 2 received gemcitabine at 120 mg/kg. Group 3 was to receive XT26 at 100 mg/kg b.i.d.×28; on D21, four mice (Animals 1, 3, 4, and 5) erroneously received 200 mg/kg XT26 for their a.m. dose. Group 4 was to receive XT26 at 200 mg/kg b.i.d.×28, but dosing stopped on D9 (b.i.d.×8) because of toxicity. Group 4 dosing at 200 mg/kg resumed on D17 on a qd (once daily)×13 dosing schedule. Because of a scheduling error, the D19 dose for Group 4 mice was omitted; qd dosing occurred on Days 17, 18, and 20-28.
Animals were weighed daily on D1-5, then twice weekly until the completion of the study. The mice were observed frequently for overt signs of any adverse, treatment-related side effects.
On D10, both kidneys and the liver were harvested from each euthanized Group 4 animal. Each organ was weighed separately, fixed overnight in 10% neutral buffered formalin, and transferred to 70% ethanol.

[3] = system: H1299 (Non-small cell lung carcinoma cell line); experiment: Cell proliferation index assay, Assay Protocol II (Fluofarma, flow cytometry); format: cell-based; details: Homo sapiens, NCI-H1299
Experimental: In a second assay to determine the inhibition of cell proliferation by a test compound, cell proliferation of the cell line of interest was measured by a cell proliferation index assay using Fluofarma (www.fluofarma.com) based technology. This assay is based on the dilution rate of a fluorescent membrane marker, which is a direct function of the number of cell divisions. Briefly, the assay is performed by loading the cells with a non-toxic fluorescent phospholipid analog before the seeding. […] Flow cytometry analysis of the fluorescent probe is performed after the loading of the cells both prior to, as well as after treatment with various concentrations of the test compound. The dilution rate of the fluorescent probe at the single cell level is directly correlated to the number of cell divisions.

PKM2, human recombinant = molecular target: T1, PKM2, human recombinant (Homo sapiens, UniProt P14618); experiment: PKM2 enzymatic activity assay (Kinase-Glo Plus luminescence); format: biochemical;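 for Max activity Group: percent increase over no-compound signal after subtracting the no-PKM2 background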
T1 construct: purchased BPS 50295
Experimental: PKM2 performs the following enzymatic reaction, where the PKM2 substrates, PEP (phosphoenolpyruvate) and ADP, are converted to pyruvate and ATP as follows:
All of the enzymatic reactions were conducted in duplicates at room temperature for 1 hour in a 50 μL mixture containing: • PKM2 assay buffer (50 mM Imidazole, pH 7.2; 7 mM MgCl2; 50 mM KCl; 0.01% Tween; • and 0.05% BSA), 0.1 mM ADP, 0.5 mM PEP, 0.1 nM PKM2 enzyme (PKM2, human recombinant (BPS catalog number 50295)) and the indicated test compound. Fructose 1,6 biphosphat e, (FBP (Sigma)) was used as a positive control for activation at concentration of 0.5 mM. After enzymatic reactions, 50 μL of Kinase-Glo® Plus reagent (Promega kit) was added to each well and luminescence was measured using a BioTek Synergy™ 2 microplate reader.
PKM2 activity assays were performed in duplicates at each concentration. The luminescence data were analyzed using the computer software, GraphPad PRISM®. In the absence of the compound, the luminescence was defined as 0% activity. The percent activity in the presence of each compound was calculated according to the following equation:
% Activity=[(L−Lb)/(Lt−Lb)−1]×100%
where L=the luminescence in the presence of the test compound, Lb=the luminescence in the absence of PKM2, and Lt=the luminescence intensity in the absence of the test compound. The % activity values versus a series of compound concentrations were plotted using non-linear regression analysis of Sigmoidal dose-response curve generated with the equation Y=B+(T−B)/1+10^((LogEC50-X)×Hill Slope), where Y=percent activity, B=minimum percent activity, T=maximum percent activity, X=logarithm of compound and Hill Slope=slope factor or Hill coefficient. The AC50 values, shown in Table 2 were determined for the indicated test compounds as the concentration causing a half-maximal percent activity.

[4] = Gemcitabine 120 mg/kg ip q3d × 4
[5] = Group 1 vs 2: Gemcitabine ip q3d × 4, 120 mg/kg

T1 sequence (P14618 whole entry): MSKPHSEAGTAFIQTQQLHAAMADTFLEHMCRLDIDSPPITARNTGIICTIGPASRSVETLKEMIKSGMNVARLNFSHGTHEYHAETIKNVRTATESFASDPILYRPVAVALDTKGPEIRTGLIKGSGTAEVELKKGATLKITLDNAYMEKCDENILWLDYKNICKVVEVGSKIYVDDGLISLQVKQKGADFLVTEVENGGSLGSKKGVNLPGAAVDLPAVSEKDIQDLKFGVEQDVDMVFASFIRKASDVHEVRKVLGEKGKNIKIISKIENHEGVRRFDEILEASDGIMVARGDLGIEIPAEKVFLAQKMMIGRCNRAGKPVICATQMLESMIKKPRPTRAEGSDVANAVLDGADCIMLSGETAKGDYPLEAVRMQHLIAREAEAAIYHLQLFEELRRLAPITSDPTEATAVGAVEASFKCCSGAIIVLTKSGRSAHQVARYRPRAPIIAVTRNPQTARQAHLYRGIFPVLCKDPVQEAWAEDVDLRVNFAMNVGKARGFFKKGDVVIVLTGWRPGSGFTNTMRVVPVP

| Structure (SMILES) | % TGD [1, 4] | Regressions CR [1, 4] | Regressions PR [1, 4] | Regressions TFS [1, 4] | Median TTE ([1]; Gemcitabine 120 mg/kg ip q3d × 4, endpoint 1200 mm^3, 28-day study) | MTV (n) Day 28 [1, 4] | MTV (n) Day 28 ([1]; Gemcitabine 120 mg/kg ip q3d × 4, listed as gemcitabine) | T − C ([1]; Gemcitabine 120 mg/kg ip q3d × 4, vs Group 1 vehicle) | Median survival ([1]; Gemcitabine ip q3d × 4, 120 mg/kg (Column B = treated group)) | Are the survival curves sig different? [1, 5] | Hazard Ratio [1, 5] | response of tumor model to therapy ([1]; standard 120 mg/kg gemcitabine therapy) | Deaths NTR ([2]; non-treatment-related deaths) | Deaths TR ([2]; treatment-related deaths) | IC50 [3] | AC50 (PKM2, human recombinant; 0.1 nM PKM2, 0.1 mM ADP, 0.5 mM PEP, 1 hour, room temperature, read-out: AC50 group) | Emax (PKM2, human recombinant; 1 h, maximum percent activity, luminescence without compound = 0% activity, read-out: Max activity Group) |
| --- | --- | --- | --- | --- | --- | --- | --- | --- | --- | --- | --- | --- | --- | --- | --- | --- | --- |
| Nc1ccn([C@@H]2O[C@H](CO)[C@@H](O)C2(F)F)c(=O)n1 [Gemcitabine, gemcitabine, reference compound] | 50% | 0 | 0 | 0 | 28.0 days | 600 (5) mm^3 | 600 mm^3 | 9.3 days | Undefined | Yes | 11.48 | responded moderately well | 0 | 0 | – | – | – |
| COc1ccc(C2CC(c3ccc(NS(=O)(=O)c4c(F)cccc4F)cc3)=NN2C(C)=O)cc1 (stereo not drawn) [Compound 61A, N-(4-(1-acetyl-5-(4-methoxyphenyl)-4,5-dihydro-1H-pyrazol-3-yl)phenyl)-2,6-difluorobenzenesulfonamide] | – | – | – | – | – | – | – | – | – | – | – | – | – | – | < 40 µM | – | – |
| COc1ccc(C2CC(c3ccc(NS(=O)(=O)c4ccc(F)cc4)cc3)=NN2C(C)=O)cc1 (racemic) [Compound 6A, N-(4-(1-acetyl-5-(4-methoxyphenyl)-4,5-dihydro-1H-pyrazol-3-yl)phenyl)-4-fluorobenzenesulfonamide] | – | – | – | – | – | – | – | – | – | – | – | – | – | – | < 40 µM | ≤ 1 µM | 130 to 200% |

From patent US20120302609A1, “Pyrazolines for the Modulation of PKM2” (Dynamix Pharmaceuticals LTD., priority 2011, published 2012)
